Key:
[1] = tested on: P. Aeruginosa and E. Aerogenes; assay: Example 3: bactericidal efficacy in preinoculated pulp slurry samples; type: cell-based; conditions: for Final Bacteria: pulp inoculated 5 minutes prior to biocide
Procedure: (§1) The addition of 5,5-dimethylhydantoin (DMH) to sodium hypochlorite solutions enhances the biocidal activity of sodium hypochlorite. The conditions of this experiment were a modification of ASTM E 600-91. Two biocide solutions were evaluated: NaOCl and NaOCl mixed with DMH in a 0.25:1 molar ratio. The NaOCl and the DMH were mixed prior to pulp introduction. The biocides were introduced to the pulp slurry 10 minutes prior to inoculation with 2×10^6 cfu/ml P. Aeruginosa and E. Aerogenes. The pulp slurry consisted of 1.3% ground aspen wood pulp and 200 ppm rosin adjusted to pH=5.0-5.5 with aluminum sulfate. Bacteria populations were measured 3 hours after pulp slurry inoculation. Final total halogen concentrations were measured at the time of bacterial population plating by sample centrifuging followed by standard DPD analyses. Biocides were neutralized with sodium thiosulfate prior to plating.
(§2) The conditions were the same as Example 1 except that the pulp was inoculated with bacteria 5 minutes prior to biocide introduction as opposed to 10 minutes after. Also the NaOCl to DMH mole ratio was increased from 0.25:1 to 1:1.

[2] = tested on: P. Aeruginosa and E. Aerogenes; assay: Example 1: pulp slurry bactericidal efficacy (modified ASTM E 600-91), biocide added 10 minutes prior to inoculation; type: cell-based; conditions: for Final Bacteria: inoculum 2×10^6 cfu/ml, 3 hours after inoculation
Procedure: as §1

[3] = tested on: P. Aeruginosa and E. Aerogenes; assay: Example 2: bactericidal efficacy of NaOCl added to DMH-treated pulp slurry; type: cell-based; conditions: for Final Bacteria: NaOCl added to pulp slurry (DMH-treated for 1:1 system)
Procedure: as §1
(§3) Prereaction of DMH with NaOCl as described in Example 1 was not required. The conditions of this experiment were in other respects the same as Example 1. The molar ratio in the pulp slurry was 1:1 NaOCl to DMH.

[4] = Example 5: final total halogen in pulp slurry with N-hydrogen compounds; type: physicochemical; conditions: for % Residual Halogen / Total Halogen Final: NaOCl to N-hydrogen compound 1:1 molar
Procedure: as §1
(§4) The conditions were the same as those of Example 1. The molar ratio of the NaOCl to N-hydrogen compound was 1:1.

[5] = tested on: P. Aeruginosa and E. Aerogenes; assay: Example 5: pulp slurry bactericidal efficacy of NaOCl with N-hydrogen compounds (1:1); type: cell-based; conditions: for log reduction of bacteria: 5 ppm halogen; for log reduction of bacteria / efficacy enhancement over sodium hypochlorite alone: Example 5; for efficacy enhancement over sodium hypochlorite alone / Final Bacteria: NaOCl to N-hydrogen compound 1:1 molar
Procedure: as §1, §4

[6] = tested on: bacteria; conditions: residual chlorine concentrations of 1.6 ppm as Cl2; U.S. Pat. No. 3,328,294; cited from earlier work
[7] = Example 1: final total halogen in pulp slurry (DPD analyses); type: physicochemical; conditions: 3 hours after inoculation; for Total Halogen Final: 1.3% aspen pulp slurry pH 5.0-5.5; for % Residual Halogen: pulp slurry pH 5.0-5.5
Procedure: as §1

[8] = Example 7: final total halogen in pulp slurry; type: physicochemical; conditions: conditions of Example 1
Procedure: as §1
(§5) Specifically, Dantochlor®, a commercial halogenated hydantoin containing predominantly dichlorodimethylhydantoin and dichloroethylmethylhydantoin was used. The conditions were the same as those of Example 1.

[9] = tested on: P. Aeruginosa and E. Aerogenes; assay: Example 7: pulp slurry bactericidal efficacy of N-halohydantoin compound; type: cell-based; conditions: conditions of Example 1
Procedure: as §1, §5

[10] = Example 3: final total halogen in preinoculated pulp slurry; type: physicochemical; conditions: pulp inoculated 5 minutes prior to biocide
Procedure: as §1, §2

[11] = Example 2: final total halogen in DMH-treated pulp slurry; type: physicochemical; conditions: NaOCl added to pulp slurry (DMH-treated for 1:1 system)
Procedure: as §1, §3

[12] = Example 4: halogen consumption in non-inoculated pulp slurry vs NaOCl:DMH molar ratio; type: physicochemical; conditions: initial total halogen 25.6 ppm as Cl2; pulp slurry not inoculated
Procedure: as §1, §3
The experimental conditions were the same as those of Example 2, except that the pulp slurry was not inoculated with bacteria.

[13] = initial total halogen 1.0 ppm as Cl2
[14] = initial total halogen 3.0 ppm as Cl2
[15] = initial total halogen 5.0 ppm as Cl2
[16] = initial total halogen 7.5 ppm as Cl2
[17] = initial total halogen 10 ppm as Cl2
[18] = initial total halogen 0.8 ppm as Cl2
[19] = initial total halogen 3.4 ppm as Cl2
[20] = initial total halogen 16.3 ppm as Cl2
[21] = initial total halogen 3 ppm as Cl2
[22] = initial total halogen 5 ppm as Cl2
[23] = initial total halogen 15 ppm as Cl2

## CC1(C)NC(=O)NC1=O [DMH, 5,5-dimethylhydantoin]
[1]; dosage 0.8 ppm halogen, in the presence of DMH, preinoculated samples, Example 3
  log reduction of bacteria: 3 log
[2]; 1 ppm halogen with DMH equivalent to 5 ppm halogen alone, Example 1
  increase in efficacy of NaOCl in the presence of DMH: fivefold
[3]; 3 ppm with DMH vs 5 ppm in its absence, Example 2
  increase in efficacy of NaOCl in the presence of DMH: twofold
[3]; initial halogen concentration 3 ppm, in the presence of DMH, Example 2
  log reduction in bacteria concentration: 2 log

## CCC1(C)NC(=O)NC1=O (stereo not drawn) [MEH, 5-ethyl-5-methylhydantoin]
[4]; compared with cyanuric acid, Example 5
  mitigation of halogen decomposition: greatest mitigation of halogen decomposition
[5]
  log reduction of bacteria: 3 log
  efficacy enhancement over sodium hypochlorite alone: dramatically increased NaOCl efficacy

## O=S(=O)(O)NCl [N-chlorosulfamate]
[6]
  bacterial concentrations achieved: 10^3 cfu/ml

## [Na+].[O-]Cl [NaOCl, sodium hypochlorite]
[7]; [13]
  Total Halogen Final: 0.00 ppm as Cl2
  % Residual Halogen: 0%
[7]; [14]
  Total Halogen Final: 0.00 ppm as Cl2
  % Residual Halogen: 0%
[7]; [15]
  Total Halogen Final: 0.00 ppm as Cl2
  % Residual Halogen: 0%
[7]; [16]
  Total Halogen Final: 0.04 ppm as Cl2
  % Residual Halogen: 0.5%
[7]; [17]
  Total Halogen Final: 0.08 ppm as Cl2
  % Residual Halogen: 0.8%
[8]; [15]
  % Residual Halogen: 0.4%
  Total Halogen Final: 0.02 ppm as Cl2
[8]; [16]
  % Residual Halogen: 1%
  Total Halogen Final: 0.05 ppm as Cl2
[9]; [15]
  Final Bacteria: ≦10^3 cfu/ml
[9]; [16]
  Final Bacteria: ≦10^3 cfu/ml
[1]; [18]
  Final Bacteria: 10^4 cfu/ml
[1]; [19]
  Final Bacteria: <10^3 cfu/ml
[1]; [20]
  Final Bacteria: <10^3 cfu/ml
[10]; [18]
  % Residual Halogen: 1.3%
  Total Halogen Final: 0.01 ppm as Cl2
[10]; [19]
  % Residual Halogen: 1.0%
  Total Halogen Final: 0.03 ppm as Cl2
[10]; [20]
  % Residual Halogen: 2.1%
  Total Halogen Final: 0.34 ppm as Cl2
[4]; [13]
  % Residual Halogen: 0.0%
  Total Halogen Final: 0.00 ppm as Cl2
[4]; [14]
  % Residual Halogen: 0.7%
  Total Halogen Final: 0.02 ppm as Cl2
[4]; [15]
  % Residual Halogen: 0.6%
  Total Halogen Final: 0.03 ppm as Cl2
[2]; [13]
  Final Bacteria: 10^5 cfu/ml
[2]; [14]
  Final Bacteria: 10^4 cfu/ml
[2]; [15]
  Final Bacteria: ≦10^3 cfu/ml
[2]; [16]
  Final Bacteria: ≦10^3 cfu/ml
[2]; [17]
  Final Bacteria: ≦10^3 cfu/ml
[11]; [21]
  % Residual Halogen: 0.0%
  Total Halogen Final: 0.00 ppm as Cl2
[11]; [22]
  % Residual Halogen: 0.4%
  Total Halogen Final: 0.02 ppm as Cl2
[11]; [16]
  % Residual Halogen: 0.5%
  Total Halogen Final: 0.06 ppm as Cl2
[11]; [17]
  % Residual Halogen: 0.4%
  Total Halogen Final: 0.04 ppm as Cl2
[11]; [23]
  % Residual Halogen: 0.7%
  Total Halogen Final: 0.11 ppm as Cl2
[5]
  log reduction of bacteria: 1 log
[5]; [13]
  Final Bacteria: 10^6 cfu/ml
[5]; [14]
  Final Bacteria: 10^5 cfu/ml
[5]; [15]
  Final Bacteria: 10^5 cfu/ml
[12]
  % Residual Halogen: 0.4%
  Total Halogen Final: 0.11 ppm as Cl2
[3]; [21]
  Final Bacteria: 10^5 cfu/ml
[3]; [22]
  Final Bacteria: 10^4 cfu/ml
[3]; [16]
  Final Bacteria: <10^3 cfu/ml
[3]; [17]
  Final Bacteria: <10^3 cfu/ml
[3]; [23]
  Final Bacteria: <10^3 cfu/ml

## NS(=O)(=O)O [Sulfamic acid, sulfamic acid]
[5]
  efficacy enhancement over sodium hypochlorite alone: no efficacy enhancement
